Laboratory results taken from patent US20060217315A1, “Method of controlled ovarian hyperstimulation and pharmaceutical kit for use in such method” (priority 2001, published 2006).

Assays:
premature LH-surge = test: Open-label uncontrolled clinical trial of premature LH-surge prevention in COH with IVF and embryo transfer; assay type: in vivo, human; conditions: for prevention of premature LH-rises (above levels of 10 IU/L): day 6 of recombinant FSH treatment until day of hCG treatment
Method: An open-label, uncontrolled clinical trial is performed to investigate the efficacy, safety, and tolerability of premature LH-surge prevention in 30 female subjects undergoing COH and subsequent IVF and embryo transfer (ET), using a daily oral dosage of 40 mg mifepristone from day 6 of recombinant FSH treatment up to and including the day of hCG treatment and thrice daily intravaginal progesterone supplementation with 200 mg starting immediately after the hCG treatment for a period of up to 12 weeks. Although this treatment is suitable for all types of IVF patients (e.g. within the age range 18 to 45 years, with or without displaying polycystic ovarian syndrome and with or without a regular cycle), the following selection criteria are set forth in the investigation: healthy female partners of infertile couples; age at the time of screening between 20 and 39 years; a body mass index (BMI) between 19 and 29 kg/m^2; a regular menstrual cycle, and willing to give a written informed consent. Prior to the first administration of recombinant FSH a blood sample is taken for hormone analysis (estradiol and LH) and a standard urinary hCG assay is performed to exclude pregnancy. Recombinant FSH treatment is started at day 2 or 3 of menses onwards by a daily subcutaneous injection until the day of hCG administration. During the first 5 days of recombinant FSH treatment the dose is fixed at 150 IU. Starting at day 6, blood samples for hormone analysis are taken every two days prior to drug administration and ultrasonographic monitoring of follicle growth is performed to adjust, if necessary, the daily injectable dose of recombinant FSH. A subcutaneous injection with urinary hCG (5.000 IU) and an intramuscular injection of 50 mg progesterone are administered simultaneously, when at least three follicles exceed a diameter of 17 mm as measured by ultrasound scan and subsequently oocyte retrieval is performed 30-38 hours later. Using the procedure as set forth in example 1, with the proviso that, instead of using a daily dose of 40 mg mifepristone, mifepristone is used at a daily dose of 20 mg, a similar clinical outcome is obtained at a lower anti-P exposure level in the female subjects. […] Using the procedure as set forth in example 1, with the proviso that, instead of using a daily dose of 40 mg mifepristone, mifepristone is used at a daily dose of 10 mg, a similar clinical outcome is obtained at a lower anti-P exposure level in the female subjects.

endometrium = test: Controlled clinical study of endometrial receptivity in oocyte donors undergoing COH (glandular dating, pinopodes); assay type: in vivo, human; conditions: endometrial biopsy day 7 after hCG injection
Method: An open-label, randomized and controlled clinical study is performed in oocyte donors undergoing COH and in whom premature LH-surges are prevented by either standard GnRH agonist treatment (5 oocyte donors) or mifepristone treatment (5 oocyte donors) with the objective to compare endometrial receptivity. In women treated with 40 mg orally administered mifepristone, the procedure as set forth in example 1 is used, with the proviso that instead of administering progesterone for 12 weeks, daily intravaginal progesterone supplementation with 400 mg is started immediately after the hCG treatment and continued until the day of endometrial biopsy (day 7 after hCG injection in donors). To oocyte donors in the reference group, undergoing COH and receiving GnRH agonist, treatment with GnRH agonist is started in the midluteal phase of the preceding menstrual cycle and given concomitantly with recombinant FSH from day 2 or 3 of the COH cycle up to and including the day of hCG treatment Vaginal progesterone supplementation is started in the GnRH-treated oocyte donors directly after oocyte retrieval (36-38 hours after hCG injection) and continued until the day of endometrial biopsy (day 7 after hCG injection). Endometrial samples are taken from all oocyte donors. […]

folliculogenesis = conditions: 50 mg/day tablets from cycle day 2 until hCG injection, with recombinant FSH; cited from earlier work
[1] = tested on: midcycle gonadotropin surge; conditions: cited from earlier work
endogenous LH surge = test: Clinical investigation: intramuscular progesterone instead of hCG to allow an endogenous LH surge in COH; assay type: in vivo, human
Method: An open-label, uncontrolled clinical investigation is performed in 5 healthy female volunteers undergoing COH and subsequent IVF and ET, using the procedure as set forth in example 1, with the proviso that in stead of administering hCG a single intramuscular injection of 50 mg progesterone is administered to allow an endogenous LH surge to occur, inducing resumption of meiosis and luteinisation.

uterine contractility = conditions: vaginal administration starting on the day of oocyte retrieval, compared with preovulatory values; cited from earlier work

SMILES | tolerability and adverse effects (premature LH-surge; 10 mg daily oral) | prevention of premature LH-rises (above levels of 10 IU/L) (premature LH-surge; 10 mg daily oral) | tolerability and adverse effects (premature LH-surge; 20 mg daily oral) | prevention of premature LH-rises (above levels of 10 IU/L) (premature LH-surge; 20 mg daily oral) | tolerability and adverse effects (premature LH-surge; 40 mg daily oral) | prevention of premature LH-rises (above levels of 10 IU/L) (premature LH-surge; 40 mg daily oral) | endometrial glandular dating (endometrium; hematoxylin and eosin staining) | presence of pinopodes (endometrium; scanning electron microscopy) | effect on follicular development (folliculogenesis) | occurrence of LH-surges prior to hCG injection (folliculogenesis) | timing of the midcycle gonadotropin surge and collapse of the dominant follicle ([1]; 1 mg/day for 5 or 15 days, starting when dominant follicle reached 14-16 mm) | emergence of periovulatory progesterone rise ([1]; 1 mg/day for 5 or 15 days) | oocyte quality at harvest (endogenous LH surge; harvested at 36-3836 hours after starting progesterone treatment) | occurrence of endogenous LH-surges (endogenous LH surge; single intramuscular injection of 50 mg, after 40 mg mifepristone COH procedure) | LH and FSH surges when added to RU486 ([1]; 5-10 mg/day, im, for 2 days, added to a 5-day course of RU486) | uterine contraction frequency on the day of embryo transfer (uterine contractility)
CC#C[C@]1(O)CC[C@H]2[C@@H]3CCC4=CC(=O)CCC4=C3[C@@H](c3ccc(N(C)C)cc3)C[C@@]21C [mifepristone] | well tolerated and shows no adverse effects | efficacious in preventing premature LH-rises | well tolerated and shows no adverse effects | efficacious in preventing premature LH-rises | well tolerated and shows no adverse effects | efficacious in preventing premature LH-rises | typically in-phase glandular dating is observed | pinopodes are readily visible | arrests follicular development by delaying the growth of the dominant follicle | may prevent the occurrence of LH-surges | consistently delayed | delayed the emergence of periovulatory progesterone rise | – | – | – | –
CC(=O)[C@H]1CC[C@H]2[C@@H]3CCC4=CC(=O)CC[C@]4(C)[C@H]3CC[C@]12C [progesterone] | – | – | – | – | – | – | – | – | – | – | – | – | retrieval of good quality oocytes | efficacious in allowing endogenous LH-surges to occur | readily induced LH and FSH surges and completely reversed the effects of RU486 at midcycle | induced a decrease in uterine contraction frequency
